For orientation: EC50 means the concentration that produces a half-maximal response.

In this test the test system is HCV 1b-Con-1 replicon. As to the kind of experiment: HCV 1b-Con-1 replicon assay (luciferase reporter gene, HuH-7 cells). It counts as cell-based, Hepatitis C virus (HCV) genotype 1b-Con1. To be noted: Hepatitis C virus, Huh-7, luciferase reporter gene activity in the replicon, in the presence of 5% FBS. (In general: In antiviral work, replicon cells carry a viral genome segment that copies itself.)
Take `COC(=O)N[C@@H](C)C(=O)N1CCC[C@H]1C(=O)Nc1ccc(CN(Cc2ccc(NC(=O)[C@@H]3CCCN3C(=O)[C@H](C)NC(=O)OC)cc2)c2ccccc2)cc1` [Example 8, Dimethyl (2S,2′S)-1,1′-((2S,2′S)-2,2′-(4,4′-(phenylazanediyl)bis(methylene)bis(4,1-phenylene)bis(azanediyl))bis(oxomethylene)bis(pyrrolidine-2,1-diyl))bis(1-oxopropane-2,1-diyl)dicarbamate]: the EC50 is 1 to 10 nM.
For `COC(=O)N[C@@H](CC(C)C)C(=O)N1CCC[C@H]1C(=O)Nc1ccc(CN(Cc2ccc(NC(=O)[C@@H]3CCCN3C(=O)[C@H](CC(C)C)NC(=O)OC)cc2)c2ccccc2)cc1` [Example 45, dimethyl [(phenylimino)bis{methanediylbenzene-4,1-diylcarbamoyl(2S)pyrrolidine-2,1-diyl[(2S)-4-methyl-1-oxopentane-1,2-diyl]}]biscarbamate], the EC50 fell in the range of 1 to 10 nM.
As to `COC(=O)N[C@H](C(=O)N1CCC[C@H]1C(=O)Nc1ccc(CN(Cc2ccc(NC(=O)[C@@H]3CCCN3C(=O)[C@@H](NC(=O)O[C@H]3CCOC3)C(C)(C)C)cc2)c2ccccc2)cc1)C(C)(C)C` [Example 59, methyl (3S)-tetrahydrofuran-3-yl[(phenylimino)bis{methanediylbenzene-4,1-diylcarbamoyl(2S)pyrrolidine-2,1-diyl[(2S)-3,3-dimethyl-1-oxobutane-1,2-diyl]}]biscarbamate], the 50% effective concentration (EC50) was in the range of 10 to 100 nM.
Next, `CCN(CC)[C@@H](C(=O)N1CCC[C@H]1c1nc2cc(CN(Cc3ccc4[nH]c([C@@H]5CCCN5C(=O)[C@@H](c5ccccc5)N(CC)CC)nc4c3)c3ccc(F)cc3)ccc2[nH]1)c1ccccc1` [Example 95, N,N-bis[(2-{(2S)-1-[(2R)-2-(diethylamino)-2-phenylacetyl]pyrrolidin-2-yl}-1H-benzimidazol-5-yl)methyl]-4-fluoroaniline]: under 1 nM; `COC(=O)N[C@H](C(=O)N1CCC[C@H]1C(=O)Nc1ccc(CN(Cc2ccc(NC(=O)[C@@H]3CCCN3C(=O)[C@H](NC(=O)OC)c3ccccc3)cc2)c2ccccc2)cc1)C(C)C` [Example 70, N-(methoxycarbonyl)-L-valyl-N-(4-{[{4-[(1-{(2R)-2-[(methoxycarbonyl)amino]-2-phenylacetyl}-L-prolyl)amino]benzyl}(phenyl)amino]methyl}phenyl)-L-prolinamide]: under 1 nM; `COC(=O)N[C@H](C(=O)N1C[C@H](O)C[C@H]1C(=O)Nc1ccc(CN(Cc2ccc(NC(=O)[C@@H]3C[C@@H](O)CN3C(=O)[C@@H](NC(=O)OC)C(C)(C)C)cc2)c2ccccc2)cc1)C(C)(C)C` [Example 48]: 1 to 10 nM.
For `O=C(Nc1ccc(CN(Cc2ccc(NC(=O)[C@@H]3CCCN3C(=O)[C@H](O)c3ccccc3)cc2)c2ccc(F)cc2)cc1)[C@@H]1CCCN1C(=O)[C@H](O)c1ccccc1` [Example 110, (2S ,2′S)-N,N′-{[(4-fluorophenyl)imino]bis(methanediylbenzene-4,1-diyl)}bis{1-[(2R)-2-hydroxy-2-phenylacetyl]pyrrolidine-2-carboxamide}], the half-maximal effective concentration (EC50) was under 1 nM.
Regarding `COC(=O)N[C@H](C(=O)N1CCC[C@H]1C(=O)Nc1ccc(CN(Cc2ccc(NC(=O)[C@@H]3CCCN3C(=O)[C@H](NC(=O)OC)c3ccccc3)cc2)c2ccccc2)cc1)C(C)(C)C` [Example 69], the EC50 is under 1 nM.
Consider `CC[C@H](C)[C@H](NC(=O)OC(C)(C)C)C(=O)N1CCC[C@H]1C(=O)Nc1ccc(CN(Cc2ccc(NC(=O)[C@@H]3CCCN3C(=O)[C@@H](NC(=O)OC(C)(C)C)[C@@H](C)CC)cc2)c2ccccc2)cc1` [Example 41, di-tert-butyl[(phenylimino)bis{methanediylbenzene-4,1-diylcarbamoyl(2S)pyrrolidine-2,1-diyl[(2S,3S)-3-methyl-1-oxopentane-1,2-diyl]}]biscarbamate], for which the EC50 lay in the range of 10 to 100 nM.
Regarding `COC(=O)N[C@@H](CCO)C(=O)N1CCC[C@H]1C(=O)Nc1ccc(CN(Cc2ccc(NC(=O)[C@@H]3CCCN3C(=O)[C@H](CCO)NC(=O)OC)cc2)c2ccc(F)cc2)cc1` [Example 134, dimethyl ([(4-fluorophenyl)imino]bis{methanediylbenzene-4,1-diylcarbamoyl(2S)pyrrolidine-2,1-diyl[(2S)-4-hydroxy-1-oxobutane-1,2-diyl]})biscarbamate], the EC50 is 1 to 10 nM.
In the case of `COC(=O)N[C@@H](C(=O)N1CCC[C@H]1C(=O)Nc1ccc(CN(Cc2ccc(NC(=O)[C@@H]3CCCN3C(=O)[C@@H]3CCCO3)cc2)c2ccccc2)cc1)c1ccccc1` [Example 76, methyl {(1R)-2-oxo-1-phenyl-2-[(2S)-2-({4-[(phenyl{4-[({(2S)-1-[(2S)-tetrahydrofuran-2-ylcarbonyl]pyrrolidin-2-yl}carbonyl)amino]benzyl}amino)methyl]phenyl}carbamoyl)pyrrolidin-1-yl]ethyl}carbamate], the 50% effective concentration (EC50) was under 1 nM.
Take `COC(=O)N[C@H](C(=O)N1CCC[C@H]1C(=O)Nc1ccc(CN(Cc2ccc(NC(=O)[C@@H]3CCCN3C(=O)[C@@H](NC(=O)OC)C(C)(C)C)cc2)c2ccon2)cc1)C(C)(C)C` [Example 33, dimethyl[(isoxazol-3-ylimino)bis{methanediylbenzene-4,1-diylcarbamoyl(2S)pyrrolidine-2,1-diyl[(2S)-3,3-dimethyl-1-oxobutane-1,2-diyl]}]biscarbamate]: the EC50 was 1 to 10 nM.
As for `COC(=O)N[C@H](C(=O)N1CCC[C@H]1C(=O)Nc1ccc(CN(Cc2ccc(NC(=O)[C@@H]3CCCN3C(=O)[C@@H](NC(=O)OC)C(C)C)cc2)C(C)C)cc1)C(C)C` [Example 24, dimethyl ([(1-methylethyl)imino]bis{methanediylbenzene-4,1-diylcarbamoyl(2S)pyrrolidine-2,1-diyl[(2S)-3-methyl-1-oxobutane-1,2-diyl]})biscarbamate], the EC50 lay in the range of 1 to 10 nM.
In the case of `COC(=O)N[C@H](C(=O)N1CCC[C@H]1c1nc2cc(CN(Cc3ccc4[nH]c([C@@H]5CCCN5C(=O)[C@@H](NC(=O)OC)[C@H]5CCOC5)nc4c3)c3ccccc3)ccc2[nH]1)[C@H]1CCOC1` [Example 78, dimethyl {(phenylimino)bis[methanediyl-1H-benzimidazole-5,2-diyl(2S)pyrrolidine-2,1-diyl{(1S)-2-oxo-1-[(3R)-tetrahydrofuran-3-yl]ethane-2,1-diyl}]}biscarbamate], the EC50 was under 1 nM.
Take `COC(=O)N[C@H](C(=O)N1CCC[C@H]1C(=O)Nc1ccc(CN(Cc2ccc(NC(=O)[C@@H]3CCCN3C(=O)[C@@H](NC(=O)OC)C(C)C)cc2)C2CCCC2)cc1)C(C)C` [Example 27, dimethyl[(cyclopentylimino)bis{methanediylbenzene-4,1-diylcarbamoyl(2S)pyrrolidine-2,1-diyl[(2S)-3-methyl-1-oxobutane-1,2-diyl]}]biscarbamate]: the EC50 was in the range of 10 to 100 nM.
Next, `COC(=O)N[C@@H](CCc1ccccc1)C(=O)N1CCC[C@H]1C(=O)Nc1ccc(CN(Cc2ccc(NC(=O)[C@@H]3CCCN3C(=O)[C@H](CCc3ccccc3)NC(=O)OC)cc2)c2ccccc2)cc1` [Example 91, dimethyl[(phenylimino)bis{methanediylbenzene-4,1-diylcarbamoyl(2S)pyrrolidine-2,1-diyl[(2S)-1-oxo-4-phenylbutane-1,2-diyl]}]biscarbamate]: 1 to 10 nM.

The record behind these values is patent US9278922B2 (ABBVIE INC., priority 2009, dated 2016).
